Experimental findings from patent US20250263405A1, “HISTONE DEACETYLASE 6 INHIBITOR COMPOUNDS AND USES THEREOF” (VALO HEALTH, INC., priority 2021, published 2025) are described below.

pIC50: −log10 of the molar value. A value given as a limit tells only on which side of the number the result lay.

HDAC6, sequence (Q9UBN7 whole entry): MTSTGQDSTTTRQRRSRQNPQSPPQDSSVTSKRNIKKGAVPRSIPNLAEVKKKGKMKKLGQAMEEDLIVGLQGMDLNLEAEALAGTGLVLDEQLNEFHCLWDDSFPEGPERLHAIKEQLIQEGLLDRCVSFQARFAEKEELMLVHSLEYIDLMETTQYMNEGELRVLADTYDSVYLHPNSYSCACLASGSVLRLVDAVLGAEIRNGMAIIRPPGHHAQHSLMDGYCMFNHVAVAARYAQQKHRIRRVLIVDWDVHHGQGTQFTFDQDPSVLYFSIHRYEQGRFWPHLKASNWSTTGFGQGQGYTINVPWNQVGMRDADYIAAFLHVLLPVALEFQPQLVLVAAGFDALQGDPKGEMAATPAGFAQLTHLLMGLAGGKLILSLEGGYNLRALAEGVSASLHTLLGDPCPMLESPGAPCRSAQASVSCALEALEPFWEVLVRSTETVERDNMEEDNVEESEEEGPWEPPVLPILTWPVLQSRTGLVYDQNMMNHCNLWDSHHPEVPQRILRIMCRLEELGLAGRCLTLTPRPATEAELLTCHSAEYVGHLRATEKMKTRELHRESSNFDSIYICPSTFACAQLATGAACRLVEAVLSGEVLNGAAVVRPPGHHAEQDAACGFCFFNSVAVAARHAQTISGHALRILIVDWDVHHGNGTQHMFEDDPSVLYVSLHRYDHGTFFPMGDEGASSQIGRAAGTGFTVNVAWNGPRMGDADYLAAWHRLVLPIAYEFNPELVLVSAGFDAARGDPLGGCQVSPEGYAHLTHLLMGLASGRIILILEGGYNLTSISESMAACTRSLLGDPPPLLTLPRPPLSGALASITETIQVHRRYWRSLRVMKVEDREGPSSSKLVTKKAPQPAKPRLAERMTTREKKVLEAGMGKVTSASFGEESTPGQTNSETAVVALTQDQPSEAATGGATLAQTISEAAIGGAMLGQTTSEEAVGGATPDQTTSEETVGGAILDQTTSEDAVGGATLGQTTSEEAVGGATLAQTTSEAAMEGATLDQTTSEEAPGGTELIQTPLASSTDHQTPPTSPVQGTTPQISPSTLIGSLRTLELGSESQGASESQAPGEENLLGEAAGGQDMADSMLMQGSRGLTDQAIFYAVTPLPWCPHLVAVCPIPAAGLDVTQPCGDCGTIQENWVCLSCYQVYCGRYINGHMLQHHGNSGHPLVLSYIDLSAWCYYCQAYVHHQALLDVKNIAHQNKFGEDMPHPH

This test has as its target HDAC6 (Homo sapiens (Human), UniProt Q9UBN7). Kind of test: HDAC6 TR-FRET displacement assay. Type of test: binding. The note with it: displacement of fluorescein labeled tracer from HDAC6; 2 nM HDAC6, 1 nM tracer, 0.5 nM Tb-anti-GST antibody; 30 min pre-incubation, 6 hours at 25° C. From the text: HDAC6 and Tb-anti-GST antibody were purchased from Signal Chem (cat #PC124) and Cisbio (cat #61GSTTAH), respectively. HEPES, pH 7.5 was purchased from Teknova (Cat #H1575). All other buffer components, NaCl (cat #S5150), KCl (cat #60121), Triton X-100 (cat #T9284), GSH (cat #G4251), BGG (cat #G5009), and BSA (cat #A2153) were purchased from SIGMA.
Displacement of fluorescein labeled tracer 2-(6-hydroxy-3-oxo-3H-xanthen-9-yl)-5-({[5-(4-{[7-(hydroxycarbamoyl)-2H,3H,4H,5H-thieno[2,3-f][1,4]oxazepine-4-carbonyl]amino}phenoxy)pentyl]carbamothioyl}amino)benzoic acid from HDAC6 was measured in vitro using a TR-FRET assay. The assays were performed in 1536-well plates in a total volume of 6 μL in assay buffer consisting of 50 mM HEPES pH 7.5, 50 mM NaCl, 50 mM KCl, 0.01% Triton X-100, 0.5 mM GSH, 0.03% BGG, 0.01% BSA.
For concentration response curves (IC50 determination), Compounds were serially diluted 3-fold from 2 mM highest concentration to generate a 10-point concentration gradient. To perform the assay, 30 nL of compound gradient solutions were transferred to the assay plate using the ECHO acoustic dispenser to achieve a final concentration range of 10 μM to 0.000508 uM in 6 μL reaction. 3 μL of HDAC6 in assay buffer were added to the assay plates and pre-incubate at room temp. for 30 mins. After pre-incubation, 3 μL of the tracer and TB-anti-GST antibody mix were added to the assay plates. The final concentrations of HDAC6, tracer, and TB-anti-GST antibody for each assay are 2 nM, 1 nM, and 0.5 nM, respectively. Binding reactions were equilibrated at 25° C. for an additional 6 hours, then read in endpoint mode on the BMG PheraStar (BMG labtech) equipped with a 337-520-490 optical module. The ratio of the 520/490 nm emission was calculated to determine the relative amounts of HDAC6 and tracer complex residue in each well.
The percent inhibition of HDAC6 (IC50) was calculated according to the following equation.
As set forth in Table 1, “A” indicates an HDAC6 IC50 value of less than 200 nM; “B” indicates an HDAC6 IC50 value of greater than or equal to 200 nM and less than 500 nM; and “C” indicates an HDAC6 IC50 value of greater than or equal to 500 nM and less than 5 μM.
On the technique in general: TR-FRET usually uses a lanthanide donor and a delayed reading to cut background.
For `CC1Oc2cc(-c3noc(C(F)(F)F)n3)ccc2CNC1=O` (stereo not drawn) [Compound 50, 2-methyl-8-[5-(trifluoromethyl)-1,2,4-oxadiazol-3-yl]-4,5-dihydro-2H-1,4-benzoxazepin-3-one], the negative-log IC50 (pIC50) was greater than 6.70.
Take `C[C@H]1COc2cc(-c3noc(C(F)(F)F)n3)cc(F)c2CN1C(=O)Cc1ccncc1` [Compound 46, 1-[(3S)-6-fluoro-3-methyl-8-[5-(trifluoromethyl)-1,2,4-oxadiazol-3-yl]-3,5-dihydro-2H-1,4-benzoxazepin-4-yl]-2-(pyridin-4-yl) ethenone]: the pIC50 is greater than 6.70.
As for `C[C@H]1COc2cc(-c3nnc(C(F)F)o3)ccc2CN1C(=O)C(C)(C)C` [Compound 20, (S)-1-(8-(5-(difluoromethyl)-1,3,4-oxadiazol-2-yl)-3-methyl-2,3-dihydrobenzo[f][1,4]oxazepin-4(5H)-yl)-2,2-dimethylpropan-1-one], the figure is greater than 6.70; as for `CC(C)N1CCC(C)(C(=O)N2Cc3c(F)cc(-c4noc(C(F)(F)F)n4)cc3OC[C@@H]2C)CC1` [Compound 56, (S)-(6-fluoro-3-methyl-8-(5-(trifluoromethyl)-1,2,4-oxadiazol-3-yl)-2,3-dihydrobenzo[f][1,4]oxazepin-4(5H)-yl)(1-isopropyl-4-methylpiperidin-4-yl)methanone], greater than 6.70; as for `C[C@H]1COc2cc(-c3noc(C(F)(F)F)n3)ccc2CN1S(C)(=O)=O` [Compound 33, (S)-3-methyl-4-(methylsulfonyl)-8-(5-(trifluoromethyl)-1,2,4-oxadiazol-3-yl)-2,3,4,5-tetrahydrobenzo[f][1,4]oxazepine], 6.30 to 6.70.
In turn, `CC1(C(=O)N2Cc3ccc(-c4noc(C(F)(F)F)n4)cc3OC[C@@H]2C2CC2)CCOCC1` [Compound 32, (3S)-3-cyclopropyl-4-[(4-methyloxan-4-yl)carbonyl]-8-[5-(trifluoromethyl)-1,2,4-oxadiazol-3-yl]-3,5-dihydro-2H-1,4-benzoxazepine] showed a pIC50 greater than 6.70.
Then `CC(=O)N1CCC(C)(C(=O)N2Cc3c(F)cc(-c4noc(C(F)(F)F)n4)cc3OC[C@@H]2C)CC1` [Compound 48, (S)-1-(4-(6-fluoro-3-methyl-8-(5-(trifluoromethyl)-1,2,4-oxadiazol-3-yl)-2,3,4,5-tetrahydrobenzo[f][1,4]oxazepine-4-carbonyl)-4-methylpiperidin-1-yl)ethan-1-one], with 6.30 to 6.70; and `COCC(=O)N1Cc2c(F)cc(-c3noc(C(F)(F)F)n3)cc2OC[C@@H]1C` [Compound 41, 1-[(3S)-6-fluoro-3-methyl-8-[5-(trifluoromethyl)-1,2,4-oxadiazol-3-yl]-3,5-dihydro-2H-1,4-benzoxazepin-4-yl]-2-methoxyethanone], with greater than 6.70.
Then `CC(C)(C)C(=O)N1Cc2ccc(-c3nnc(C(F)F)o3)cc2OC[C@@H]1c1ccccc1` [Compound 22, (S)-1-(8-(5-(difluoromethyl)-1,3,4-oxadiazol-2-yl)-3-phenyl-2,3-dihydrobenzo[f][1,4]oxazepin-4(5H)-yl)-2,2-dimethylpropan-1-one], with greater than 6.70; and `CC1(C(=O)N2Cc3ccc(-c4noc(C(F)(F)F)n4)cc3OCC23CC3)COC1` [Compound 47, (3-methyloxetan-3-yl)(8-(5-(trifluoromethyl)-1,2,4-oxadiazol-3-yl)-2H-spiro[benzo[f][1,4]oxazepine-3,1′-cyclopropan]-4(5H)-yl)methanone], with 6.30 to 6.70; and `C[C@H]1COc2cc(-c3noc(C(F)(F)F)n3)cc(F)c2CN1C(=O)c1ccccc1` [Compound 44, (3S)-4-benzoyl-6-fluoro-3-methyl-8-[5-(trifluoromethyl)-1,2,4-oxadiazol-3-yl]-3,5-dihydro-2H-1,4-benzoxazepine], with 6.30 to 6.70.
As for `C[C@H]1COc2cc(-c3noc(C(F)(F)F)n3)cc(F)c2CN1C(=O)C(C)(C)C` [Compound 19, 1-[(3S)-6-fluoro-3-methyl-8-[5-(trifluoromethyl)-1,2,4-oxadiazol-3-yl]-3,5-dihydro-2H-1,4-benzoxazepin-4-yl]-2,2-dimethylpropan-1-one], the figure is greater than 6.70.

Broadly, the pIC50 is the negative decadic logarithm of the IC50, by convention in mol/L. Read a high pIC50 as a small IC50.
